According to patent US9504685B2, “Method for treating a pulmonary hypertension condition” (Gilead Sciences, Inc., priority 2006, dated 2016):

Test system: subjects with PAH
Assay: Example 1 (ARIES-2) placebo-controlled Phase III trial, efficacy
Format: in vivo, human
Conditions: for Change in 6MWD from baseline to Week 12, mean / Week 12 6MWD, mean: ITT population; for geometric mean percent change in plasma ET-1, increase from baseline / geometric mean plasma BNP, decrease from baseline / mean BDI change from baseline: Week 12
Description: The primary objective of this study was to determine the effect of ambrisentan on exercise capacity in subjects with PAH. The secondary objectives of this study were to evaluate effects of ambrisentan on other clinical measures of PAH, as well as safety and tolerability of the study drug.
Study drug was provided in round, biconvex, oral tablets that were identical in appearance. Three strengths of active study drug, containing 1 mg, 2.5 mg or 5 mg of ambrisentan, were used in this study. All study drug was packaged in blister cards. Subjects were instructed to take study drug once daily (q.d.) by mouth (p.o.) in the morning, with or without food.
The maximum study duration was up to 14 weeks from the time of initial screening procedures to the final study visit (Week 12). Screening procedures were performed a maximum of 2 weeks prior to the first dose of study drug. The maximum duration of study drug treatment was 12 weeks.
Men and women, 18 years of age or older, with idiopathic PAH, PAH associated with connective tissue disease (CTD), e.g., mixed CTD, CREST syndrome, systemic sclerosis (scleroderma), overlap syndrome or systemic lupus erythematosus, or PAH associated with anorexigen use or HIV infection were enrolled in this study. Subjects were to have a documented mean PAP≧25 mmHg, PVR>3 mmHg/L/min, and PCWP or LVEDP<15 mmHg. Subjects must have been able to walk a distance of at least 150 m but no more than 450 m during 2 consecutive 6MWTs to be eligible for inclusion in the study.
After a 2 week screening period, eligible subjects were stratified based on the underlying etiology of PAH (idiopathic or non-idiopathic) and were randomized to 1 of 3 treatment groups (placebo, 2.5 mg or 5 mg ambrisentan) in a ratio of 1:1:1. One blinded dose reduction was permitted during the 12-week treatment period in the event of study drug intolerance (e.g., 5 mg to 2.5 mg, 2.5 mg to 1 mg, placebo to placebo). Subjects received a daily dose of 1 mg ambrisentan only if they reduced from the 2.5 mg dose group. Subjects were assessed for efficacy and safety at monthly intervals.
Therefore, after a minimum treatment period of 4 weeks, subjects who met 2 or more of the following predefined early escape criteria may have been removed from the study: • (a) a decrease from baseline of at least 20% in 6MWD; • (b) an increase of 1 or more WHO functional class; • (c) worsening right ventricular failure (e.g., as indicated by increased jugular venous pressure, new or worsening hepatomegaly, ascites or peripheral edema); • (d) rapidly progressing cardiogenic, hepatic or renal failure; and/or • (e) refractory systolic hypotension (systolic blood pressure <85 mmHg).
The primary efficacy endpoint was change from baseline in 6MWD evaluated after 12 weeks of treatment compared to placebo.
The secondary efficacy endpoints included: • (a) time to clinical worsening of PAH, as defined by the time from randomization to the first occurrence of death, lung transplantation, hospitalization for PAH, atrial septostomy, study discontinuation due to addition of other PAH therapeutic agents, or study discontinuation due to 2 or more early escape criteria; • (b) change from baseline measured after 12 weeks of treatment compared to placebo in: • (i) WHO functional class; • (ii) SF-36® health survey physical functioning scale; • (iii) BDI immediately following exercise; and/or • (iv) an assessment of the safety and tolerability of the study drug; and • (c) change from baseline measured after 12 weeks of treatment compared to placebo in plasma levels of ET-1, cTnT and BNP. Safety Assessments
For the ITT population, subjects were considered as belonging to their randomized treatment group, regardless of the actual treatment received.
The primary efficacy endpoint was the change from baseline in 6MWD evaluated after 12 weeks of treatment compared to placebo, where the last observation was carried forward. […]

[1] = 2.5 mg once daily, baseline to Week 12
[2] = 5 mg once daily, baseline to Week 12

For `COC(c1ccccc1)(c1ccccc1)[C@H](Oc1nc(C)cc(C)n1)C(=O)O` [ambrisentan], the “placebo-adjusted improvement in mean 6MWD at Week 12” value (2.5 mg once daily) was “+32.3 m”, the “subjects at least maintaining their baseline WHO functional class at Week 12” value (2.5 mg once daily) was 95.3% and the “Clinical worsening event: Atrial septostomy” value (2.5 mg once daily, 12 weeks) was 0 (0.0) subjects (% of ITT population). For the same molecule, the “Clinical worsening event: Death” value (2.5 mg once daily, 12 weeks) was 2 (3.1) subjects (% of ITT population), the “Clinical worsening event: Escape criteria” value (2.5 mg once daily, 12 weeks) was 2 (3.1) subjects (% of ITT population) and the “Clinical worsening event: Hospitalization for PAH” value (2.5 mg once daily, 12 weeks) was 3 (4.7) subjects (% of ITT population). The “Clinical worsening event: Lung transplantation” value (2.5 mg once daily, 12 weeks) was 0 (0.0) subjects (% of ITT population), the “Clinical worsening event: Study withdrawal due to addition of PAH treatment” value (2.5 mg once daily, 12 weeks) was 0 (0.0) subjects (% of ITT population) and the “Clinical worsening: Total subjects with ≧1 event” value (2.5 mg once daily, 12 weeks) was 3 (4.7) subjects (% of ITT population). For the same molecule, the “subjects who experienced an event of clinical worsening” value (2.5 mg once daily, 12 weeks) was 4.7%, the “Change in 6MWD from baseline to Week 12, mean” value (2.5 mg once daily) was “+22.2 meters” and the “Week 12 6MWD, mean” value (2.5 mg once daily) was 369.6 meters. The “geometric mean percent change in plasma ET-1, increase from baseline” value (2.5 mg once daily) was 19%, the “geometric mean plasma BNP, decrease from baseline” value (2.5 mg once daily) was 29% and the “mean BDI change from baseline” value (2.5 mg once daily) was −0.20. For the same molecule, the “Change in SF-36 Bodily pain, mean (SD)” value [1] was “+2.34 (11.87)”, the “Change in SF-36 General health, mean (SD)” value [1] was “+3.84 (6.71)” and the “Change in SF-36 Mental component summary, mean (SD)” value [1] was “+4.05 (10.30)”. The “Change in SF-36 Mental health, mean (SD)” value [1] was “+4.98 (9.70)”, the “Change in SF-36 Physical component summary, mean (SD)” value [1] was “+3.78 (7.63)” and the “Change in SF-36 Physical functioning, mean (SD)” value [1] was “+3.86 (7.14)”. For the same molecule, the “Change in SF-36 Role-emotional, mean (SD)” value [1] was “+3.11 (12.90)”, the “Change in SF-36 Role-physical, mean (SD)” value [1] was “+5.87 (11.72)” and the “Change in SF-36 Social functioning, mean (SD)” value [1] was “+4.55 (9.72)”. The “Change in SF-36 Vitality, mean (SD)” value [1] was “+4.07 (9.12)”, the “Change in WHO functional class: +1 class” value [1] was 2 (3.1) subjects (% of ITT population) and the “Change in WHO functional class: +2 classes” value [1] was 1 (1.6) subjects (% of ITT population). The “Change in WHO functional class: no change” value [1] was 51 (79.7) subjects (% of ITT population), the “Change in WHO functional class: −1 class” value [1] was 10 (15.6) subjects (% of ITT population) and the “Change in WHO functional class: −2 classes” value [1] was 0 (0.0) subjects (% of ITT population). The “placebo-adjusted improvement in mean 6MWD at Week 12” value (5 mg once daily) was “+59.4 m”, the “subjects at least maintaining their baseline WHO functional class at Week 12” value (5 mg once daily) was 96.8% and the “Clinical worsening event: Atrial septostomy” value (5 mg once daily, 12 weeks) was 0 (0.0) subjects (% of ITT population). The “Clinical worsening event: Death” value (5 mg once daily, 12 weeks) was 0 (0.0) subjects (% of ITT population), the “Clinical worsening event: Escape criteria” value (5 mg once daily, 12 weeks) was 1 (1.6) subjects (% of ITT population) and the “Clinical worsening event: Hospitalization for PAH” value (5 mg once daily, 12 weeks) was 2 (3.2) subjects (% of ITT population). For the same molecule, the “Clinical worsening event: Lung transplantation” value (5 mg once daily, 12 weeks) was 0 (0.0) subjects (% of ITT population), the “Clinical worsening event: Study withdrawal due to addition of PAH treatment” value (5 mg once daily, 12 weeks) was 0 (0.0) subjects (% of ITT population) and the “Clinical worsening: Total subjects with ≧1 event” value (5 mg once daily, 12 weeks) was 3 (4.8) subjects (% of ITT population). For the same molecule, the “subjects hospitalized for worsening right heart failure” value (5 mg once daily, 12 weeks) was 1 subjects, the “subjects who experienced an event of clinical worsening” value (5 mg once daily, 12 weeks) was 4.8% and the “Change in 6MWD from baseline to Week 12, mean” value (5 mg once daily) was “+49.4 meters”. For the same molecule, the “Week 12 6MWD, mean” value (5 mg once daily) was 404.7 meters, the “geometric mean percent change in plasma ET-1, increase from baseline” value (5 mg once daily) was 72% and the “geometric mean plasma BNP, decrease from baseline” value (5 mg once daily) was 30%. The “mean BDI change from baseline” value (5 mg once daily) was −0.36, the “Change in SF-36 Bodily pain, mean (SD)” value [2] was “+0.46 (9.99)” and the “Change in SF-36 General health, mean (SD)” value [2] was “+4.95 (8.05)”. The “Change in SF-36 Mental component summary, mean (SD)” value [2] was “+6.28 (11.64)”, the “Change in SF-36 Mental health, mean (SD)” value [2] was “+4.03 (10.13)” and the “Change in SF-36 Physical component summary, mean (SD)” value [2] was “+2.97 (7.79)”. For the same molecule, the “Change in SF-36 Physical functioning, mean (SD)” value [2] was “+2.96 (6.81)” and the “Change in SF-36 Role-emotional, mean (SD)” value [2] was “+8.15 (14.43)”.
